Patent US10988478B1, “Pyrazolo[1,5a]pyrimidine derivatives as IRAK4 modulators” (Genentech, Inc., priority 2015, dated 2021)

Target: human IRAK4 (Homo sapiens (Human), UniProt Q9NWZ3)
Assay: IRAK4 kinase inhibition, Transcreener fluorescence polarization ADP assay
Format: biochemical
Conditions: recombinant full-length His6-IRAK4; 125 uM ATP; 90 min; Ki computed using ATP Km 642 uM
Protocol: Compounds were assayed for inhibition of human IRAK4 and IRAK1 catalytic activity using recombinant enzyme produced from insect cells. Full-length IRAK4 protein, carrying an N-terminal His6-Tag, was obtained from Life Technologies (Carlsbad, Calif., USA). The IRAK1 construct was produced internally and was comprised of IRAK1 residues Arg194 to Ser712, preceded by an NH2-terminal His6 tag and the coding sequence for glutathione-S-transferase.

human IRAK4, sequence (Q9NWZ3 whole entry): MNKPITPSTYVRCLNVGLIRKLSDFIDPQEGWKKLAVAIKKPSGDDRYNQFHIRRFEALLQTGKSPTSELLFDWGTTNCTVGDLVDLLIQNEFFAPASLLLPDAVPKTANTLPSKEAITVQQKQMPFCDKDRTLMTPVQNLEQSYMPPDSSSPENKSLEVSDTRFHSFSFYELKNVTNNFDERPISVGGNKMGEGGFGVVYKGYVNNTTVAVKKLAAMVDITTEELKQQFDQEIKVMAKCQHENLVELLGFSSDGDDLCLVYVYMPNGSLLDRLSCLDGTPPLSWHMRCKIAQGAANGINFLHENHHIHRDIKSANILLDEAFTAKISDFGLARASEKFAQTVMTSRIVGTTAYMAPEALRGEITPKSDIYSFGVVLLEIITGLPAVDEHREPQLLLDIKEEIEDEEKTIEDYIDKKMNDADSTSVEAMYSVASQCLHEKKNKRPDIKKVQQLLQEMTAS

SMILES	Ki [nM]
CC(C)(O)[C@H](F)CN1Cc2cc(NC(=O)c3cnn4cccnc34)c(N3CCOCC3)cc2C1=O [Example 139, (R)—N-(2-(2-Fluoro-3-hydroxy-3-methylbutyl)-6-morpholino-1-oxoisoindolin-5-yl)pyrazolo[1,5-a]pyrimidine-3-carboxamide]	1.5
C[C@]1(C2CC2)Cc2cc(NC(=O)c3cnn4cccnc34)c(N3CCN(CC(F)F)CC3)cc2O1 [Example 159, (R)—N-(2-Cyclopropyl-6-(4-(2,2-difluoroethyl)piperazin-1-yl)-2-methyl-2,3-dihydrobenzofuran-5-yl)pyrazolo[1,5-a]pyrimidine-3-carboxamide]	4.4
CCC1(C)Cc2cc(NC(=O)c3cnn4cccnc34)c(N3CCOCC3)cc2O1 (stereo not shown) [Example 21, N-(2-Ethyl-2-methyl-6-morpholino-2,3-dihydrobenzofuran-5-yl)pyrazolo[1,5-a]pyrimidine-3-carboxamide]	6.4
CC1(C)Cc2cc(NC(=O)c3cnn4cccnc34)c(N3CCc4[nH]cnc4C3)cc2O1 [Example 238, N-(2,2-Dimethyl-6-(1,4,6,7-tetrahydro-5H-imidazo[4,5-c]pyridin-5-yl)-2,3-dihydrobenzofuran-5-yl)pyrazolo[1,5-a]pyrimidine-3-carboxamide]	36
O=C(Nc1cc2c(cc1N1CCOCC1)OCCCN2)c1cnn2cccnc12 [Example 35, N-(8-Morpholino-2,3,4,5-tetrahydrobenzo[b][1,4]oxazepin-7-yl)pyrazolo[1,5-a]pyrimidine-3-carboxamide]	690
CC1(C)Cc2cc(NC(=O)c3cnn4cc(Cl)cnc34)c(N3CCC4(CCOC4)CC3)cc2O1 [Example 167, 6-Chloro-N-(2,2-dimethyl-6-(2-oxa-8-azaspiro[4.5]decan-8-yl)-2,3-dihydrobenzofuran-5-yl)pyrazolo[1,5-a]pyrimidine-3-carboxamide]	2.8
Cc1c2c(cc(NC(=O)c3cnn4cccnc34)c1N1CCOCC1)C[C@@](C)(CO)O2 [Example 84, (S)—N-(2-(hydroxymethyl)-2,7-dimethyl-6-morpholino-2,3-dihydrobenzofuran-5-yl)pyrazolo[1,5-a]pyrimidine-3-carboxamide]	24
C[C@]1(CO)Cc2cc(NC(=O)c3cnn4cc(Cl)cnc34)c(N3CCC(CO)CC3)cc2O1 [Example 163, (R)-6-Chloro-N-(2-(hydroxymethyl)-6-(4-(hydroxymethyl)piperidin-1-yl)-2-methyl-2,3-dihydrobenzofuran-5-yl)pyrazolo[1,5-a]pyrimidine-3-carboxamide]	3.9
CC1(C)Cc2cc(NC(=O)c3cnn4cccnc34)c(N3CCCC3CO)cc2O1 (stereo not shown) [Example 201, N-(6-(2-(hydroxymethyl)pyrrolidin-1-yl)-2,2-dimethyl-2,3-dihydrobenzofuran-5-yl)pyrazolo[1,5-a]pyrimidine-3-carboxamide]	28
C[C@]1(CO)Cc2cc(NC(=O)c3cnn4cccnc34)c(N3CCC(F)(F)CC3)cc2O1 [Example 122, (R)—N-(6-(4,4-difluoropiperidin-1-yl)-2-(hydroxymethyl)-2-methyl-2,3-dihydrobenzofuran-5-yl)pyrazolo[1,5-a]pyrimidine-3-carboxamide]	6
CC1(C)Cc2cc(NC(=O)c3cnn4cccnc34)c(N3CCN(CC(N)=O)CC3)cc2O1 [Example 187, N-[6-[4-(2-amino-2-oxo-ethyl)piperazin-1-yl]-2,2-dimethyl-3H-benzofuran-5-yl]pyrazolo[1,5-a]pyrimidine-3-carboxamide]	2
CC1(C)Cc2cc(NC(=O)c3cnn4cccnc34)c(N3CCC4CC43)cc2O1 (stereo not shown) [Example 240, N-(6-(2-Azabicyclo[3.1.0]hexan-2-yl)-2,2-dimethyl-2,3-dihydrobenzofuran-5-yl)pyrazolo[1,5-a]pyrimidine-3-carboxamide]	27
CN(C)C(=O)CN1CCN(c2cc3c(cc2NC(=O)c2cnn4cccnc24)CC(C)(C)O3)CC1 [Example 232, N-(6-(4-(2-(Dimethylamino)-2-oxoethyl)piperazin-1-yl)-2,2-dimethyl-2,3-dihydrobenzofuran-5-yl)pyrazolo[1,5-a]pyrimidine-3-carboxamide]	34
CC1(C)Cc2cc(NC(=O)c3cnn4cccnc34)c(N3Cc4cccnc4C3)cc2O1 [Example 189, N-[6-(5,7-dihydropyrrolo[3,4-b]pyridin-6-yl)-2,2-dimethyl-3H-benzofuran-5-yl]pyrazolo[1,5-a]pyrimidine-3-carboxamide]	5.5
CC1(C)Cc2cc(NC(=O)c3cnn4cccnc34)c(N3C[C@@H]4CC(F)(F)C[C@@H]4C3)cc2O1 [Example 197, N-(6-((3aR,6aS)-5,5-difluorohexahydrocyclopenta[c]pyrrol-2(1H)-yl)-2,2-dimethyl-2,3-dihydrobenzofuran-5-yl)pyrazolo[1,5-a]pyrimidine-3-carboxamide]	33
CC1(C)Cc2cc(NC(=O)c3cnn4cccnc34)c(OCC(F)(F)F)cc2O1 [Example 70, N-[2,2-Dimethyl-6-(2,2,2-trifluoroethoxy)-3H-benzofuran-5-yl]pyrazolo[1,5-a]pyrimidine-3-carboxamide]	28
CC1(C)Cc2cc(NC(=O)c3cnn4cccnc34)c(N3CCC(C(F)(F)F)CC3)cc2O1 [Example 218, N-(2,2-dimethyl-6-(4-(trifluoromethyl)piperidin-1-yl)-2,3-dihydrobenzofuran-5-yl)pyrazolo[1,5-a]pyrimidine-3-carboxamide]	17
CC1(C)Cc2cc(NC(=O)c3cnn4cccnc34)c(N3CCOCC3)cc2S1(=O)=O [Example 118, N-[2,2-Dimethyl-6-(morpholin-4-yl)-1,1-dioxo-2,3-dihydro-benzothiophen-5-yl]pyrazolo[1,5-a]pyrimidine-3-carboxamide]	14

More lines, now with the values ahead:

Ki [nM]	SMILES
32	C[C@]1(CO)Cc2cc(NC(=O)c3cnn4cccnc34)c(N3C[C@@H]4[C@H](C3)[C@H]4C(N)=O)cc2O1 [Example 413, N-((R)-6-((1R,5S,6R)-6-carbamoyl-3-azabicyclo[3.1.0]hexan-3-yl)-2-(hydroxymethyl)-2-methyl-2,3-dihydrobenzofuran-5-yl)pyrazolo[1,5-a]pyrimidine-3-carboxamide]
33	CC1(C)Cc2cc(NC(=O)c3cnn4cccnc34)c(OCc3c[nH]cn3)cc2O1 [Example 539, N-[6-(1H-Imidazol-4-ylmethoxy)-2,2-dimethyl-3H-benzofuran-5-yl]pyrazolo[1,5-a]pyrimidine-3-carboxamide]
4.8	CC(C)(O)C1CCN(c2cc3c(cc2NC(=O)c2cnn4cccnc24)C[C@](C)(CO)O3)CC1 [Example 324, N-[(2R)-2-(Hydroxymethyl)-6-[4-(1-hydroxy-1-methyl-ethyl)-1-piperidyl]-2-methyl-3H-benzofuran-5-yl]pyrazolo[1,5-α]pyrimidine-3-carboxamide]
2	CC1(CO)Cc2cc(NC(=O)c3cnn4cccnc34)c(N3CCC(C(O)C(F)F)CC3)cc2O1 (stereo not shown) [Example 352, N-(6-(4-(2,2-Difluoro-1-hydroxyethyl)piperidin-1-yl)-2-(hydroxymethyl)-2-methyl-2,3-dihydrobenzofuran-5-yl)pyrazolo[1,5-a]pyrimidine-3-carboxamide]
5.8	CC1(C)Cc2cc(NC(=O)c3cnn4cccnc34)c(N3CCN(CCC(N)=O)CC3)cc2O1 [Example 455, N-(6-(4-(3-amino-3-oxopropyl)piperazin-1-yl)-2,2-dimethyl-2,3-dihydrobenzofuran-5-yl)pyrazolo[1,5-a]pyrimidine-3-carboxamide]
31	CN1CC[C@@]2(Cc3cc(NC(=O)c4cnn5cccnc45)c(N4CCOCC4)cc3O2)C1 [Example 391, (S)—N-(1′-methyl-6-morpholino-3H-spiro[benzofuran-2,3′-pyrrolidin]-5-yl)pyrazolo[1,5-a]pyrimidine-3-carboxamide]
6	C[C@]1(O)CCCN(c2cc3c(cc2NC(=O)c2cnn4cccnc24)C[C@](C)(CO)O3)CC1 [Example 330, N-((R)-6-((S)-4-hydroxy-4-methylazepan-1-yl)-2-(hydroxymethyl)-2-methyl-2,3-dihydrobenzofuran-5-yl)pyrazolo[1,5-a]pyrimidine-3-carboxamide]
6.7	C[C@]1(CO)Cc2cc(NC(=O)c3cnn4cccnc34)c(N3CCC([C@@](C)(O)C(F)(F)F)CC3)cc2O1 [Example 409, N—((R)-2-(hydroxymethyl)-2-methyl-6-(4-((R)-1,1,1-trifluoro-2-hydroxypropan-2-yl)piperidin-1-yl)-2,3-dihydrobenzofuran-5-yl)pyrazolo[1,5-a]pyrimidine-3-carboxamide]
17	CC1(C)Cc2cc(NC(=O)c3cnn4cccnc34)c(OCc3ccncc3)cc2O1 [Example 301, N-(2,2-Dimethyl-6-(pyridin-4-ylmethoxy)-2,3-dihydrobenzofuran-5-yl)pyrazolo[1,5-α]pyrimidine-3-carboxamide]
74	CC1(C)Cc2cc(NC(=O)c3cnn4cccnc34)c(OC[C@H]3CCC(=O)N3)cc2O1 [Example 540, N-[2,2-dimethyl-6-[[(2R)-5-oxopyrrolidin-2-yl]methoxy]-3H-benzofuran-5-yl]pyrazolo[1,5-a]pyrimidine-3-carboxamide]
15	CC1(C)Cc2cc(NC(=O)c3cnn4cccnc34)c(OCC3CCNCC3)cc2O1 [Example 309, N-(2,2-Dimethyl-6-(piperidin-4-ylmethoxy)-2,3-dihydrobenzofuran-5-yl)pyrazolo[1,5-α]pyrimidine-3-carboxamide]
3.6	C[C@]1(CO)Cc2cc(NC(=O)c3cnn4cccnc34)c(N3CCC4(CC3)CNC(=O)C4)cc2O1 (single isomer, unassigned) [Example 417]
5.2	O=C(Nc1cc2c(cc1N1CCC(CO)CC1)O[C@](CO)(C(F)(F)F)C2)c1cnn2cccnc12 [Example 316, (R)-N-(2-(hydroxymethyl)-6-(4-(hydroxymethyl)piperidin-1-yl)-2-(trifluoromethyl)-2,3-dihydrobenzofuran-5-yl)pyrazolo[1,5-a]pyrimidine-3-carboxamide]
